These results are taken from patent US8877759B2, “Aminopyrazines as ATR kinase inhibitors” (Vertex Pharnaceuticals Incorporated, priority 2011, dated 2014).

Read-outs that look alike come from different tables or passages of the source.

This experiment addresses T1, full-length ATR (Homo sapiens, UniProt Q13535).
T1 construct: Assays were carried out at 25° C. in the presence of 5 nM full-length ATR
In words: ATR Inhibition Assay (radioactive-phosphate incorporation). The experiment is classed as biochemical. As for the experimental part: Compounds were screened for their ability to inhibit ATR kinase using a radioactive-phosphate incorporation assay. Assays were carried out in a mixture of 50 mM Tris/HCl (pH 7.5), 10 mM MgCl2 and 1 mM DTT.
Assays were carried out at 25° C. in the presence of 5 nM full-length ATR. An assay stock buffer solution was prepared containing all of the reagents listed above, with the exception of ATP and the test compound of interest. […] The plate was pre-incubated for 10 minutes at 25° C. and the reaction initiated by addition of 15 μL [γ-33P]ATP (final concentration 10 μM).
The reaction was stopped after […] by the addition of 30 μL 0.1M phosphoric acid containing 2 mM ATP. A multiscreen phosphocellulose filter 96-well plate (Millipore, Cat no. MAPHN0B50) was pretreated with 100 μL 0.2M phosphoric acid prior to the addition of 45 μL of the stopped assay mixture. The plate was washed with 5×200 μL 0.2M phosphoric acid.
After removing mean background values for all of the data points, Ki(app) data were calculated from non-linear regression analysis of the initial rate data using the Prism software package (GraphPad Prism version 3.0cx for Macintosh, GraphPad Software, San Diego Calif., USA).

The mark [1] stands for this setting: Ki(app), 5 nM full-length ATR, 10 μM [γ-33P]ATP, 800 μM target peptide, 25° C.

T1 sequence (Q13535 whole entry): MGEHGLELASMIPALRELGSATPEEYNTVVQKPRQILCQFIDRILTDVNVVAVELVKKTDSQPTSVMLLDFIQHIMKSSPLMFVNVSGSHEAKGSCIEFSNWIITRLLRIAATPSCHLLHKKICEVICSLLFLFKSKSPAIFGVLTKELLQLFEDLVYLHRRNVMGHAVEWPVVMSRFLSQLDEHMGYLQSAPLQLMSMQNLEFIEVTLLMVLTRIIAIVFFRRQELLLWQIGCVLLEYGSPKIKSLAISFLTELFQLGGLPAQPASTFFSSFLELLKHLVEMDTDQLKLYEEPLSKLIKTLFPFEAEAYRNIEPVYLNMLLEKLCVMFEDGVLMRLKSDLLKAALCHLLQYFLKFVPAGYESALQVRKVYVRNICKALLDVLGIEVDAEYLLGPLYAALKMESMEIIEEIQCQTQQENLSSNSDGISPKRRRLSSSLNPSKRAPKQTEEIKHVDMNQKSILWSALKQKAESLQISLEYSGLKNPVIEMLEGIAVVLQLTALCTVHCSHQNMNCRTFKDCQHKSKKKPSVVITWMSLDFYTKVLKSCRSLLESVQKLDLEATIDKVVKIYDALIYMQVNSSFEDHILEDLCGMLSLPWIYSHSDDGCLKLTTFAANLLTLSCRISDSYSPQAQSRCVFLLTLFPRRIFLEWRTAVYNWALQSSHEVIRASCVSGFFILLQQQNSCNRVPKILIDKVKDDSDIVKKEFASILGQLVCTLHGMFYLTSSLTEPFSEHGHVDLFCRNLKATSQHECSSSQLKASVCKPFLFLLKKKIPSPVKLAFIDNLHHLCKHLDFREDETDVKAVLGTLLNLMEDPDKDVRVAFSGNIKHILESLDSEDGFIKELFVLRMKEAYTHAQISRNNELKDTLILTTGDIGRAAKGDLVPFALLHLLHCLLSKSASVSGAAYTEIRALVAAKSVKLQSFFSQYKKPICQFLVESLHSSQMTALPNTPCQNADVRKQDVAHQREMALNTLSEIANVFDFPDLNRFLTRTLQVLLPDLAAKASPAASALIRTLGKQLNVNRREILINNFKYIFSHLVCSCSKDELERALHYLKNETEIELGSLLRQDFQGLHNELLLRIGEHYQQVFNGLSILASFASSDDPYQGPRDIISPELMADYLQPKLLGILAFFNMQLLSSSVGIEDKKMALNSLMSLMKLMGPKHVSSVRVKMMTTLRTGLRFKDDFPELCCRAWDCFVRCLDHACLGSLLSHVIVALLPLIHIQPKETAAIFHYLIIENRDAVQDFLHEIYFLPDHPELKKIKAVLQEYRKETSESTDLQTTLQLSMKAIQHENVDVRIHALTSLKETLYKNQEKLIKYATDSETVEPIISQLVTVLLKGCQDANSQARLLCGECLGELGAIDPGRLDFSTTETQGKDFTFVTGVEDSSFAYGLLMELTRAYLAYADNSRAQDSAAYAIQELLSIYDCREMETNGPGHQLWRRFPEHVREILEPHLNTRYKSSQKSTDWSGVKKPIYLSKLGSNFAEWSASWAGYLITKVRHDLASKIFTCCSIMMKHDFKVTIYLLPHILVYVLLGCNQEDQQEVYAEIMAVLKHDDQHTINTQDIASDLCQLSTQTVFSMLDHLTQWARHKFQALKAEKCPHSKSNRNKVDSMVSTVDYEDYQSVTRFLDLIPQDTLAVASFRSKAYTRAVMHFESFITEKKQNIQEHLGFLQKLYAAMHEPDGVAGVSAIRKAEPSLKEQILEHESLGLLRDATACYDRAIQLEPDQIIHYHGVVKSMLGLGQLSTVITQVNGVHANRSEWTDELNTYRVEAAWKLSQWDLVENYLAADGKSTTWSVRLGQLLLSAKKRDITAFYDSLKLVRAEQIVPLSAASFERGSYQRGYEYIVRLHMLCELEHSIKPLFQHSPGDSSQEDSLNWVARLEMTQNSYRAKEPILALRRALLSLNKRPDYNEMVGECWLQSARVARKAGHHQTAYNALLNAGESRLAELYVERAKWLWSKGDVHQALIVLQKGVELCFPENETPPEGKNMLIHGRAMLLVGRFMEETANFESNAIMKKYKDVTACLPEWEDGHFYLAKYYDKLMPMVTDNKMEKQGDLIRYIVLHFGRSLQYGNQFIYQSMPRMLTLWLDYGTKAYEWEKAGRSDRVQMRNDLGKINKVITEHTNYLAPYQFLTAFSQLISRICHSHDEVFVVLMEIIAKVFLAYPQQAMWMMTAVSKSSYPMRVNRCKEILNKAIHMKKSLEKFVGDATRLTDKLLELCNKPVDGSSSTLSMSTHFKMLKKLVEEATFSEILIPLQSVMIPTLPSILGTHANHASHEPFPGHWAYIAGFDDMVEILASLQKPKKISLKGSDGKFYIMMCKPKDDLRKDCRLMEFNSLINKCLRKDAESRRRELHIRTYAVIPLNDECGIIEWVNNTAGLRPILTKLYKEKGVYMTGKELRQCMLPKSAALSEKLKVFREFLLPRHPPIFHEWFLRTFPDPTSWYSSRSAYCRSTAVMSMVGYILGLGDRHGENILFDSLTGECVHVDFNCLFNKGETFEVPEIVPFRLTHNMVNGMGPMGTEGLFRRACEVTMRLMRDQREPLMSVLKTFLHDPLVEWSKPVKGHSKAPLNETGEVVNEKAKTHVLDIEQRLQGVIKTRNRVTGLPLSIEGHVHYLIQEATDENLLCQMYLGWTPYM

With `CC(C)(C#N)c1cc(-c2cnc(N)c(-c3nnc(-c4cccc(C5CCCN5)c4)o3)n2)ccn1` (centres unmarked) [Compound I-89], the Ki is 5 to 20 nM. Turning to `CC(C)(C#N)c1cc(-c2cnc(N)c(-c3nnc(-c4ccc(C5CCNCC5)cc4)o3)n2)ccn1` [Compound I-109], under setting [1], the “ATR Ki” value is “+++ (Compounds with a Ki value >5 nM but ≦1 nM are marked with “+++.”)”. Regarding `CC(C)(C#N)c1cc(-c2cnc(N)c(-c3nnc(-c4ccc(C5COCCN5)cc4)o3)n2)ccn1` (centres unmarked) [Compound I-99], the Ki was in the range of 20 to 100 nM. Turning to `CC(C)(C(=O)N1CCNCC1)c1cc(-c2cnc(N)c(-c3cc(-c4ccccc4)no3)n2)ccn1` [Compound I-20, 2-[4-[5-amino-6-(3-phenylisoxazol-5-yl)pyrazin-2-yl]-2-pyridyl]-2-methyl-1-piperazin-1-yl-propan-1-one], the Ki lay in the range of 5 to 20 nM. As for `N#CC1(c2cc(-c3cnc(N)c(-c4cc(-c5ccc(CN[C@H]6CCOC6)cc5)no4)n3)ccn2)CCCC1` [Compound I-36, 1-[4-[5-amino-6-[3-[4-[[[(3S)-tetrahydrofuran-3-yl]amino]methyl]phenyl]isoxazol-5-yl]pyrazin-2-yl]-2-pyridyl]cyclopentanecarbonitrile], the Ki is less than 1 nM. As to `CC(C)(C#N)c1cc(-c2cnc(N)c(-c3nnc(-c4ccc(NCCN)cc4F)o3)n2)ccn1` [Compound I-75], the Ki lay in the range of 5 to 20 nM. In the case of `COCC(CO)CNCc1ccc(-c2cc(-c3nc(-c4ccnc(C(C)(C)C#N)c4)cnc3N)on2)cc1` (centres unmarked) [Compound I-67], the Ki is less than 1 nM.

As to `CC(C)(C#N)c1cc(-c2cnc(N)c(-c3nnc(-c4cccc(C5CNC5)c4)o3)n2)ccn1` [Compound I-95], under setting [1], the “ATR Ki” value is reported as “+++ (Compounds with a Ki value >5 nM but ≦1 nM are marked with “+++.”)”. With `CN1CC(Oc2ccc(-c3nnc(-c4nc(-c5ccnc(C(C)(C)C#N)c5)cnc4N)o3)cc2)C1` [Compound I-121], the Ki is less than 1 nM.

Regarding `N#CC1(c2cc(-c3cnc(N)c(-c4cc(-c5ccc(CN[C@H]6CCOC6)cc5)no4)n3)ccn2)CCC1` [Compound I-35, 1-[4-[5-amino-6-[3-[4-[[[(3S)-tetrahydrofuran-3-yl]amino]methyl]phenyl]isoxazol-5-yl]pyrazin-2-yl]-2-pyridyl]cyclobutanecarbonitrile], the Ki is less than 1 nM.

Take `CNCc1ccc(-c2cc(-c3nc(-c4ccnc(C(C)C#N)c4)cnc3N)on2)cc1` (centres unmarked) [Compound I-49, 2-[4-[5-amino-6-[3-[4-(methylaminomethyl)phenyl]isoxazol-5-yl]pyrazin-2-yl]-2-pyridyl]propanenitrile]: the Ki was less than 1 nM. As to `N#CC1(c2cc(-c3cnc(N)c(-c4cc(-c5ccccc5O)no4)n3)ccn2)CCNCC1` [Compound I-26, 4-[4-[5-amino-6-[3-(2-hydroxyphenyl)isoxazol-5-yl]pyrazin-2-yl]-2-pyridyl]piperidine-4-carbonitrile], the “ATR Ki” value under setting [1] was “+++ (Compounds with a Ki value >5 nM but ≦1 nM are marked with “+++.”)”. In the case of `CC(C)(C(=O)N1CCC1)c1cc(-c2cnc(N)c(-c3cc(-c4ccccc4)no3)n2)ccn1` [Compound I-47, 2-[4-[5-amino-6-(3-phenylisoxazol-5-yl)pyrazin-2-yl]-2-pyridyl]-1-(azetidin-1-yl)-2-methyl-propan-1-one], the Ki fell in the range of 5 to 20 nM. With `CC(C)(C#N)c1cc(-c2cnc(N)c(-c3cc(-c4ccc(CN[C@H]5CCOC5)cc4)no3)n2)ccn1` [Compound I-19, 2-[4-[5-amino-6-[3-[4-[[[(3S)-tetrahydrofuran-3-yl]amino]methyl]phenyl]isoxazol-5-yl]pyrazin-2-yl]-2-pyridyl]-2-methyl-propanenitrile], under setting [1], the Ki is less than 1 nM. As to `CN(C)CCNc1ccc(-c2nnc(-c3nc(-c4ccnc(C(C)(C)C#N)c4)cnc3N)o2)cc1` [Compound I-114], the “ATR Ki” value under setting [1] was “+++ (Compounds with a Ki value >5 nM but ≦1 nM are marked with “+++.”)”.

With `CC(C)(C#N)c1cc(-c2cnc(N)c(-c3nnc(-c4cccc(C5CNCCN5)c4)o3)n2)ccn1` (centres unmarked) [Compound I-58], the Ki is 5 to 20 nM. On the same count and under the same terms, to `CC(C)(C#N)c1cc(-c2cnc(N)c(-c3nnc(-c4ccc(OCCN5CCCC5)cc4)o3)n2)ccn1` [Compound I-69] belongs less than 1 nM. In the case of `N#CC1(c2cc(-c3cnc(N)c(-c4cc(-c5ccc(CO)cc5)no4)n3)ccn2)CCNCC1` [Compound I-31, 4-[4-[5-amino-6-[3-[4-(hydroxymethyl)phenyl]isoxazol-5-yl]pyrazin-2-yl]-2-pyridyl]piperidine-4-carbonitrile], under setting [1], the “ATR Ki” value is “+++ (Compounds with a Ki value >5 nM but ≦1 nM are marked with “+++.”)”. Same read-out and setting: to `N#CC1(c2cc(-c3cnc(N)c(-c4cc(-c5ccc(O)cc5)no4)n3)ccn2)CCNCC1` [Compound I-32, 4-[4-[5-amino-6-[3-(4-hydroxyphenyl)isoxazol-5-yl]pyrazin-2-yl]-2-pyridyl]piperidine-4-carbonitrile] belongs “+++ (Compounds with a Ki value >5 nM but ≦1 nM are marked with “+++.”)”; to `CN(CCN)c1ccc(-c2nnc(-c3nc(-c4ccnc(C(C)(C)C#N)c4)cnc3N)o2)cc1` [Compound I-72], “+++ (Compounds with a Ki value >5 nM but ≦1 nM are marked with “+++.”)”. Same read-out and setting: the same measure for `Cc1ccsc1-c1cc(-c2nc(-c3ccnc(C4(C#N)CCNCC4)c3)cnc2N)on1` [Compound I-24, 4-[4-[5-amino-6-[3-(3-methyl-2-thienyl)isoxazol-5-yl]pyrazin-2-yl]-2-pyridyl]piperidine-4-carbonitrile]: “+++ (Compounds with a Ki value >5 nM but ≦1 nM are marked with “+++.”)”.

`CNCCNC(=O)C(C)(C)c1cc(-c2cnc(N)c(-c3cc(-c4ccccc4)no3)n2)ccn1` [Compound I-65]: the Ki was 5 to 20 nM. Same read-out and setting: the same measure for `CC(C)(C#N)c1cc(-c2cnc(N)c(-c3cc(-c4ccc(O)cc4)no3)n2)ccn1` [Compound I-51, 2-[4-[5-amino-6-[3-(4-hydroxyphenyl)isoxazol-5-yl]pyrazin-2-yl]-2-pyridyl]-2-methyl-propanenitrile]: less than 1 nM. Still for that read-out and setting: to `CC(C)(C#N)c1cc(-c2cnc(N)c(-c3nnc(-c4cccc(CCN)c4)o3)n2)ccn1` [Compound I-66] belongs less than 1 nM. For the molecule `CCCN(CCOC)C(=O)c1cc(-c2cnc(N)c(-c3cc(-c4ccccc4)no3)n2)ccn1` [Compound I-132], the “ATR Ki” value under setting [1] was “+++ (Compounds with a Ki value >5 nM but ≦1 nM are marked with “+++.”)”.

For the molecule `CC(C)(C#N)c1cc(-c2cnc(N)c(-c3nnc(-c4ccc(C5CNCCN5)cc4)o3)n2)ccn1` (centres unmarked) [Compound I-82], the “ATR Ki” value under setting [1] is “+++ (Compounds with a Ki value >5 nM but ≦1 nM are marked with “+++.”)”.

For the molecule `CN(C)CCNc1cc(F)ccc1-c1nnc(-c2nc(-c3ccnc(C(C)(C)C#N)c3)cnc2N)o1` [Compound I-108], the Ki was less than 1 nM. For `CCCN(CCN(C)C)C(=O)c1cc(-c2cnc(N)c(-c3cc(-c4ccccc4)no3)n2)ccn1` [Compound I-91], the Ki was 5 to 20 nM.

In the case of `CNCc1ccc(-c2cc(-c3nc(-c4ccnc(C(C)(C)C(=O)N(C)C)c4)cnc3N)on2)cc1` [Compound I-11, 2-[4-[5-amino-6-[3-[4-(methylaminomethyl)phenyl]isoxazol-5-yl]pyrazin-2-yl]-2-pyridyl]-N,N,2-trimethyl-propanamide], the Ki was less than 1 nM. With `CNCc1ccc(-c2cc(-c3nc(-c4ccnc(C(C)(C)C#N)c4)cnc3N)on2)cc1` [Compound I-1, 2-[4-[5-amino-6-[3-[4-(methylaminomethyl)phenyl]isoxazol-5-yl]pyrazin-2-yl]-2-pyridyl]-2-methyl-propanenitrile], the Ki was less than 1 nM.

Consider `CC(C)(C#N)c1cc(-c2cnc(N)c(-c3nnc(-c4ccc(N5CCC5)cc4)o3)n2)ccn1` [Compound I-118], for which the “ATR Ki” value under setting [1] is recorded as “+++ (Compounds with a Ki value >5 nM but ≦1 nM are marked with “+++.”)”. Take `CC(C)(c1cc(-c2cnc(N)c(-c3cc(-c4ccccc4)no3)n2)ccn1)S(=O)(=O)C1CCNCC1` [Compound I-23, 5-[2-[1-methyl-1-(4-piperidylsulfonyl)ethyl]-4-pyridyl]-3-(3-phenylisoxazol-5-yl)pyrazin-2-amine]: the “ATR Ki” value under setting [1] is on record as “+++ (Compounds with a Ki value >5 nM but ≦1 nM are marked with “+++.”)”. As for `CC(C)(C#N)c1cc(-c2cnc(N)c(-c3nnc(-c4ccc(CNC5CCCOC5)cc4)o3)n2)ccn1` (centres unmarked) [Compound I-122], the Ki was less than 1 nM. Take `CNCc1ccc(-c2cc(-c3nc(-c4ccnc(C(C)S(C)(=O)=O)c4)cnc3N)on2)cc1` (centres unmarked) [Compound I-15, 3-[3-[4-(methylaminomethyl)phenyl]isoxazol-5-yl]-5-[2-(1-methylsulfonylethyl)-4-pyridyl]pyrazin-2-amine]: the Ki was less than 1 nM. Same read-out and setting: to `CC(C)(C#N)c1cc(-c2cnc(N)c(-c3nnc(-c4cccc(N5CCC(N)CC5)c4)o3)n2)ccn1` [Compound I-125] belongs 5 to 20 nM; to `Cc1ccccc1-c1cc(-c2nc(-c3ccnc(C4(C#N)CCNCC4)c3)cnc2N)on1` [Compound I-25, 4-[4-[5-amino-6-[3-(o-tolyl)isoxazol-5-yl]pyrazin-2-yl]-2-pyridyl]piperidine-4-carbonitrile], 5 to 20 nM; to `CC(C)(C#N)c1cc(-c2cnc(N)c(-c3cc(-c4ccc(CNC5CCCOC5)cc4)no3)n2)ccn1` (centres unmarked) [Compound I-93], less than 1 nM. On the same count and under the same terms, the same measure for `CN1CCCC(C#N)(c2cc(-c3cnc(N)c(-c4cc(-c5ccccc5)no4)n3)ccn2)C1` (centres unmarked) [Compound I-37, 3-[4-[5-amino-6-(3-phenylisoxazol-5-yl)pyrazin-2-yl]-2-pyridyl]-1-methyl-piperidine-3-carbonitrile]: less than 1 nM.
